Measured values reported in patent publication EP0209274A2, “Furanone derivatives” (ELI LILLY AND COMPANY, priority 1985, dated 1987).

target: T1, 5-Lipoxygenase (Cavia porcellus, UniProt A0A286X958); assay: 5-Lipoxygenase (5-LPO) Assay; type: biochemical, guinea pigs; conditions: inhibition of 5-HETE formation; supernatant of guinea pig PMNL sonicate; read-out: 5-LPO IC50 (µg/ml) (converted)
T1 construct: The PMNL suspension was disrupted by five ½-second pulse sonication; from tissue; host or cells: guinea pig peritoneal polymorphonuclear leukocytes (30,000 x g supernatant of the sonicate)
T1 sequence (A0A286X958 1-674): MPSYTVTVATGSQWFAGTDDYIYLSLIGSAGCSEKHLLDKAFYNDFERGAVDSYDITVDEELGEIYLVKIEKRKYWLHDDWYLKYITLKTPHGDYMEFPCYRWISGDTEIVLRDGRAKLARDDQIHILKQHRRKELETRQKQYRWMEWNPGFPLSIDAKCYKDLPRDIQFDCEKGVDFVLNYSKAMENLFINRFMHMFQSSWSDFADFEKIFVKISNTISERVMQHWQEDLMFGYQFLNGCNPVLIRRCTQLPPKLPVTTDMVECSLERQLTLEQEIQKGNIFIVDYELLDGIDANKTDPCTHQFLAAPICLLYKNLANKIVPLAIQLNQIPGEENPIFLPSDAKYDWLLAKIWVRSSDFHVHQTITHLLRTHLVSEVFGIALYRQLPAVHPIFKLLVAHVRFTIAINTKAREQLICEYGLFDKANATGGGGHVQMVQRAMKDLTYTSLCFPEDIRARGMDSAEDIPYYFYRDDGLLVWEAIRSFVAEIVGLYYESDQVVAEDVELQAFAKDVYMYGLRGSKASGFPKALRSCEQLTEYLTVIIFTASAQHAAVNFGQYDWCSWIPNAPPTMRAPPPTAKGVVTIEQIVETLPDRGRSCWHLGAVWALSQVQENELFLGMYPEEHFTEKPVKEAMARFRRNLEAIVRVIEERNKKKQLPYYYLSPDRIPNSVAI
Procedure: Ten milliliters of a 2% casein solution were injected intraperitoneally to guinea pigs weighing 250-300 gm. After 16-18 hours, the guinea pigs were killed by suffocation in a carbon dioxide chamber. The peritoneal cavity was infused with 70 ml of saline and 40-50 ml of the fluid were recovered from the cavity. After centrifugation, cell pellets were washed twice in Hank's balanced salt solution (HBSS) without calcium ion.
The cells were then suspended in 5 ml of sodium phosphate buffer, pH 7.1 containing 1 mM EDTA, and 0.1% gelatin. About 20-30 x 10^7 cells were obtained from one guinea pig.
The PMNL suspension was disrupted by five ½-second pulse sonication at the setting of 3 in a Branson Sonifier, Model 350, equipped with a microtip. The sonicates were combined and centrifuged at 30,000 x g for 10 minutes. The supernatant was kept frozen at -70°C until use.
. Enzyme activity was determined by assaying for 5-HETE formatiun by first incubating 0.2 ml of the supernatant obtained from the PMNL sonicate with the test compound, 1 mM CaCl2, 2 mM ATP, and 1 mM GSH for 5 minutes at 37°C. The mixture is treated with 5 pM ^14C-arachidonic acid and incubated at 37°C an additional 10 minutes. The enzyme reaction was then stopped by the addition of 10 µl of 1M citric acid and 10 µl of an alcohol solution containing 20 mg/ml each of indomethacin and butylated hydroxyanisole (BHA). The reaction mixture was spotted (50 µl) on a silica gel plate (Baker TLC plate S1250-PA-19C) and subjected to TLC in a solvent system of ethyl acetate/2,2,4-tri- methylpentane/glacial acetic acid/H20 (90:50:20:100).
The radioactivity of the arachidonic acid and its metabolites (5-HETE and LTB4) was visualized from a developed x-ray film which had been exposed to the TLC plate 1-2 days. The amount of 5-HETE formed was quanti- tated by scraping the silica gel area corresponding to the spot on the x-ray film, and the radioactivity determined in a Isocap/300 liquid scintillation counter (Searle Analytic, Inc.).
The percent inhibition of the formation of 5-HETE was determined for each concentration of test compound tested as compared to a control experiment wherein no test compound was added. The concentration and percent inhibition values were plotted on semi log paper and the concentration in which formation of 5-HETE is inhibited by 50% (ICso) was determined by interpolation.

Structure (SMILES) | IC50
CCCCC/C=C\C/C=C\C/C=C\CCCC1=CC(=O)OC1O (stereo not shown) [Example 5, (Z,Z,Z)-4-(4,7,10-hexadecatrienyl)-5-hydroxy-2(5H)-furanone] | 1.57 to 4.71 µM
CCCCC/C=C\C/C=C\CCCCCCC1=CC(=O)OC1O (stereo not shown) [Example 1, (Z,Z)-4-(7,10-hexadecadienyl)-5-hydroxy-2-(5H)-furanone] | 1.25 to 3.12 µM
CC/C=C\C/C=C\C/C=C\C/C=C\C/C=C\C/C=C\CC1=CC(=O)OC1O (stereo not shown) [Example 9, (Z,Z,Z,Z,Z,Z)-4-(2,5,8,11,14,17-eicosa-hexaenyl)-5-hydroxy-2(5H)-furanone] | 2.17 to 16.3 µM
O=C1C=C(CCCCOc2ccc3ccccc3c2)C(O)O1 (stereo not shown) [Example 12, 5-Hydroxy-4-[4-(2-naphthalenyloxy)butyl]-2(5H)-furanone] | 16.8 to 40.2 µM
CC/C=C\C/C=C\C/C=C\CCCCCCC1=CC(=O)OC1O (stereo not shown) [Example 2, (Z,Z,Z)-4-(7,10,13-hexadecatrienyl)-5-hydroxy-2(5H)-furanone] | 0.471 to 1.88 µM
CCCCC/C=C\C/C=C\C/C=C\C/C=C\CCC1=CC(=O)OC1O (stereo not shown) [Example 3, (Z,Z,Z,Z)-5-hydroxy-4-(3,6,9,12-octa-decatetraenyl)-2(5H)-furanone] | 0.435 to 1.16 µM
CCCCCCCC/C=C\CCCCCCC1=CC(=O)OC1O (stereo not shown) [Example 11, (Z)-4-(7-hexadecenyl)-5-hydroxy-2(5H)-furanone] | 1.24 µM
CCCCCCCC/C=C/CCCCCCC1=CC(=O)OC1O (stereo not shown) [Example 4, (E)-4-(7-hexadecenyl)-5-hydroxy-2(5H)-furanone] | ~3.1 µM

The next lines start with the values.

IC50 | Structure (SMILES)
25.1 µM | CC(C)=CCCC(C)=CCCC(C)=CCCC1=CC(=O)OC1O (stereo not shown) [Example 13, 5-Hydroxy-4-(4,8,12-trimethyl-3,7,11-tri-decatrienyl)-2(5H)-furanone]
24 µM | CC(C)=CCC/C(C)=C/CCC1=CC(=O)OC1O (stereo not shown) [Example 14, (E,E)-4-(4,8-dimethyl-3,7-nonadienyl)-5-hydroxy-2(5H)-furanone]
28.4 µM | O=C1C=C(CCCCCOc2ccccc2Cc2ccccc2)C(O)O1 (stereo not shown) [Example 18, 5-Hydroxy-4-[5-(2-benzylphenoxy)pentyl]-2(5H)-furanone]
0.241 µM | CC(C)=CCCC(C)=CCCC(C=O)=CCCC1=CC(=O)OC1O (stereo not shown) [Example 15, 2-[3-(2,5-dihydro-2-hydroxy-5-oxo-3-furanyl)-propylidene]-6,10-dimethyl-5,9-undecadienal]
4.48 µM | CC(C)=CCCC(C)=CCCC(=CCCC1=CC(=O)OC1O)CO (stereo not shown) [Example 19, 5-Hydroxy-4-[4-(hydroxymethyl)-8,12-dimethyl-3,7,11-tridecatrienyl]-2(5H)-furanone]
